For this data set the following is noted: 293.2 K; 101.33 kPa; Liquid; Vibrating tube method.

± gives the expanded uncertainty stated by the source.

By mass density is commonly meant mass per unit of volume. Turning to `CCn1cc[n+](C)c1.N#CN=C=[N-]` [1-ethyl-3-methylimidazolium dicyanamide], the mass density is on record as 1104.9 ± 1.1 kg/m3.

Turning to `CC[n+]1ccc(C)cc1.O=S(=O)([N-]S(=O)(=O)C(F)(F)F)C(F)(F)F`, the mass density came out at 1489.9 ± 0.7 kg/m3.

For the origin of these results see the NIST ThermoML archive (doi:10.1016/j.fluid.2016.02.018).
